This passage reports TGI results from PubChem BioAssay (NCI).

Each structure is given as a SMILES string.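 Exposure lasted 48 hours, with cells grown in 96-well plates and compounds tested at five concentrations. Definition used: TGI = concentration required for complete inhibition of growth.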

Some test systems named below: DU-145 prostate; MCF7 breast; SF-268 CNS; HCT-116 colon; SR leukemia; HS 578T breast; OVCAR-4 ovarian; BT-549 breast; KM12 colon; SNB-19 CNS; MALME-3M melanoma; NCI-H522 lung; SF-539 CNS; SK-MEL-2 melanoma.
Holding throughout (assay): NCI tumour cell line growth inhibition, 48 h

For `COCCOC(=O)C(C)=[N+]=[N-]`, the TGI with DU-145 prostate, in the assay on MCF7 breast, with SF-268 CNS, with HCT-116 colon, with SR leukemia and in the assay with HS 578T breast was over 100 µM each time. Moreover, the TGI with OVCAR-4 ovarian, with BT-549 breast, in the assay with KM12 colon, in the assay with SNB-19 CNS, in the assay with MALME-3M melanoma and in the assay on NCI-H522 lung was over 100 µM in each case.
On to `COc1ccc(CCc2nccn2C)cc1OC`, for which the TGI in the assay on SF-539 CNS, in the assay on SK-MEL-2 melanoma, in the assay with MCF7 breast, with SF-268 CNS, in the assay with HCT-116 colon and in the assay on SR leukemia was over 100 µM each time. In addition, the TGI in the assay with HS 578T breast, with OVCAR-4 ovarian, in the assay on BT-549 breast, in the assay on SNB-19 CNS and in the assay with MALME-3M melanoma was over 100 µM in each case.
Consider `Cc1cc2c(cc1Cl)SC(NNc1ccc([N+](=O)[O-])cc1)=NS2(=O)=O`, for which the TGI in the assay with DU-145 prostate, in the assay with SF-539 CNS, in the assay on SK-MEL-2 melanoma, with MCF7 breast, in the assay on SF-268 CNS and in the assay on HCT-116 colon was over 10 µM each time. In addition, the TGI in the assay on HS 578T breast, in the assay with OVCAR-4 ovarian, in the assay on BT-549 breast, in the assay on KM12 colon, in the assay with SNB-19 CNS and in the assay with MALME-3M melanoma was over 10 µM throughout. The compound also gave a TGI in the assay on NCI-H522 lung of over 10 µM.
Consider `N#Cc1nc(COCCOCc2ccc(F)cc2)oc1N`, for which the TGI with DU-145 prostate, in the assay on SF-539 CNS, in the assay on SK-MEL-2 melanoma, in the assay on MCF7 breast, with SF-268 CNS and in the assay on HCT-116 colon was over 100 µM in each case. The TGI with SR leukemia, in the assay on OVCAR-4 ovarian, in the assay on BT-549 breast, with KM12 colon and in the assay with NCI-H522 lung was over 100 µM throughout.
For `O=C(CSC1=NNC2(C(=O)N1)c1ccccc1-c1ccccc12)NC(=S)Nc1ccccc1`, the TGI with DU-145 prostate, with SF-539 CNS, in the assay with MCF7 breast, in the assay with SF-268 CNS, in the assay on HCT-116 colon and in the assay with SR leukemia was over 10 µM in each case. Moreover, the TGI in the assay on OVCAR-4 ovarian, in the assay with BT-549 breast, with KM12 colon, in the assay on SNB-19 CNS, with MALME-3M melanoma and with NCI-H522 lung was over 10 µM each time.
As to `Cc1nc2c(=O)n3c4c(cccc4c2o1)CCC3`, the TGI with DU-145 prostate, in the assay on SF-539 CNS, with SK-MEL-2 melanoma, in the assay on MCF7 breast, in the assay with SF-268 CNS and with HCT-116 colon was over 100 µM each time. For the same compound, the TGI with HS 578T breast, in the assay on OVCAR-4 ovarian, in the assay on BT-549 breast, in the assay on KM12 colon, with SNB-19 CNS and in the assay with MALME-3M melanoma was over 100 µM throughout.
For the compound `CCC(=O)C(C(C)/C=C/CCSc1ccccc1)C(O)CCCCCC(=O)OC` (stereo unspecified), the TGI with DU-145 prostate, with SF-539 CNS, in the assay on SK-MEL-2 melanoma, with MCF7 breast, in the assay on SF-268 CNS and in the assay with HCT-116 colon was over 100 µM throughout. In addition, the TGI in the assay on SR leukemia, with OVCAR-4 ovarian, in the assay on BT-549 breast, in the assay on KM12 colon, in the assay on SNB-19 CNS and with MALME-3M melanoma was over 100 µM throughout. For the same compound, the TGI in the assay with NCI-H522 lung is over 100 µM.
With `COc1ccc(N=[N+]([O-])c2ccc(OC)cc2)cc1`, the TGI with DU-145 prostate, in the assay with SK-MEL-2 melanoma, in the assay with MCF7 breast, in the assay with SF-268 CNS, with HCT-116 colon and in the assay with HS 578T breast was over 100 µM each time. The TGI with OVCAR-4 ovarian, with BT-549 breast, with KM12 colon, in the assay on SNB-19 CNS, in the assay with MALME-3M melanoma and in the assay with NCI-H522 lung was over 100 µM in each case.
As to `C[C@]12CC[C@H](O)CC1=CC[C@@H]1C2CC[C@]2(C)Nc3c(cnn3-c3ccc(F)cc3)CC12` (stereo partly specified), the TGI with DU-145 prostate is over 100 µM; in the assay on SF-539 CNS it was 4.44 µM; in the assay on MCF7 breast, over 100 µM; in the assay with SF-268 CNS it was over 100 µM; in the assay with HCT-116 colon, over 100 µM; with SR leukemia, over 100 µM. The TGI in the assay on HS 578T breast was 22.2 µM; in the assay on OVCAR-4 ovarian, 55.9 µM; with BT-549 breast it was 38.9 µM; with KM12 colon, over 100 µM; with SNB-19 CNS, over 100 µM; with MALME-3M melanoma, over 100 µM. The TGI with NCI-H522 lung was over 100 µM.
In the case of `CC#CC(O)(C(=O)OC1CC2CCC(C1)N2C)C1CCCC1` (stereo unspecified), the TGI in the assay with DU-145 prostate, in the assay on SF-539 CNS, with SK-MEL-2 melanoma, in the assay on MCF7 breast, in the assay on SF-268 CNS and with HCT-116 colon was over 100 µM in each case. In addition, the TGI in the assay with SR leukemia, in the assay on HS 578T breast, with OVCAR-4 ovarian, in the assay on BT-549 breast, in the assay on KM12 colon and in the assay on SNB-19 CNS was over 100 µM each time.
`c1ccc(CC2(c3cc4ccccc4[nH]3)OCCO2)nc1`: the TGI in the assay with DU-145 prostate, with SF-539 CNS, with SK-MEL-2 melanoma, in the assay with SF-268 CNS, with HCT-116 colon and with HS 578T breast was over 100 µM each time. Moreover, the TGI in the assay on BT-549 breast, in the assay on KM12 colon, in the assay with SNB-19 CNS, with MALME-3M melanoma and in the assay with NCI-H522 lung was over 100 µM in each case.
Take `CCc1n[nH]c(=O)n1CCO`: the TGI with DU-145 prostate, in the assay with SF-539 CNS, with SK-MEL-2 melanoma, with MCF7 breast, in the assay with HCT-116 colon and in the assay on OVCAR-4 ovarian was over 100 µM each time. Also, the TGI in the assay with BT-549 breast, in the assay on KM12 colon and in the assay with SNB-19 CNS was over 100 µM each time.
